Assay results as given in patent publication US11091522B2, “Peptidomimetic macrocycles and uses thereof” (priority 2018, dated 2021).

Tests used:
[1] = tested on: bacterial mutagenicity (Ames); assay: Bacterial mutagenicity (Ames)
[2] = tested on: human peripheral blood lymphocyte
[3] = tested on: E2F1 mRNA; conditions: SJSA1, following wash-out
[4] = tested on: advanced solid tumors or lymphomas; assay: Phase 1/2a clinical study of AP1 alone or with palbociclib
[5] = Pharmacokinetics of AP1 and palbociclib in non-tumor-bearing nu/nu mice
[6] = Patient 001-005, cohort 1, Liposarcoma, MDM2 CN 276
[7] = Patient 009-116, cohort 7b, Retroperitoneal liposarcoma, MDM2 CN 25
[8] = nu/nu, mouse, in vivo, 20 mg/kg

## CC(=O)N[C@@H](CC(C)C)C(=O)N[C@H](C(=O)N[C@@H](Cc1ccccc1)C(=O)N[C@]1(C)CCCCCC/C=C\CCC[C@@](C)(C(=O)N[C@@H](C)C(=O)N[C@@H](C)C(=O)N[C@@H](C)C(=O)N[C@@H](C)C(=O)N[C@@H](C)C(=O)N[C@H](C)C(N)=O)NC(=O)[C@H](CC(C)C)NC(=O)[C@H](CCC(N)=O)NC(=O)[C@H](C)NC(=O)[C@H](Cc2c[nH]c3ccccc23)NC(=O)[C@H](Cc2ccc(O)cc2)NC(=O)[C@H](CCC(=O)O)NC1=O)[C@@H](C)O [AP1]
[1]
  bacterial mutagenicity (Ames): negative
[2]
  chromosomal aberrations: negative
[3]
  E2F1 mRNA: did not exhibit repression of E2F1 mRNA
[4]; DL-6A (3.1 mg/kg), six DLT-evaluable patients
  DLTs: only one DLT was observed (fatigue)
[4]; [6]
  Best % Change from Baseline: 11.6%
  Best Overall Response: CDP
[4]; Patient 001-015, cohort 3b, Leiomyosarcoma, MDM2 CN 99
  Best % Change from Baseline: 0%
[4]; Patient 001-115, cohort 7a, Breast, MDM2 CN 11
  Best % Change from Baseline: −13.3%
[4]; Patient 006-053, cohort 4b, Liposarcoma, MDM2 CN 100
  Best % Change from Baseline: 15.8%
[4]; Patient 006-093, cohort 6b, Liposarcoma, MDM2 CN 48
  Best % Change from Baseline: 0%
[4]; Patient 006-096, cohort 7b, Well differentiated liposarcoma, MDM2 CN 118
  Best % Change from Baseline: 9.8%
[4]; Patient 006-098, cohort 6b, Gastric adenocarcinoma, MDM2 CN 23
  Best % Change from Baseline: 15.8%
[4]; Patient 009-085, cohort 6a, Bladder carcinoma, MDM2 CN 72
  Best % Change from Baseline: 28.8%
[4]; [7]
  Best % Change from Baseline: 11%
  Best Overall Response: CDP
[4]; Patient 009-120, cohort 7a, Atypical lipomatous tumor, MDM2 CN 49
  Best % Change from Baseline: −36.9%
[4]; patients, DL-3B
  drug-related AE Grade ≥2: neutropenia
[4]; patients, DL-4A
  drug-related AE Grade ≥2: fatigue
[4]; patients, DL-7A (DR-7A), two DLTs
  DLTs: hypotension and hepatobiliary laboratory abnormalities
[4]; patients, DR-7A-2, two DLTs
  DLTs: anemia and neutropenia
[5]; non-tumor-bearing nu/nu mice
  effect of co-administration on PK: not affected by palbociclib
[5]; [8]
  AUC(0-t): 686 µg·h/mL
  Cmax: 138 µg/mL
